Consider seven compounds from patent US20190292167A1, “HETEROAROMATIC COMPOUNDS USEFUL FOR THE TREATMENT OF PROLIFERATIVE DISEASES” (Syros Pharmaceuticals, Inc., priority 2013, published 2019).

Structures are written as SMILES. Where a name gives a salt, the structure may show the parent alone. Where only a bound is given, the exact number is not on record here.

One experiment has as its system 143B. Briefly: Inhibition of cell proliferation, CellTiter-Glo, 72 hour. The class given is cell-based. Particulars: Homo sapiens, Osteosarcoma cell line. On the technique in general: ATP-based viability assays read luminescence as a measure of living cells.
Another experiment deals with hTERT-HME1. The experiment is described as above. The class given is cell-based. Conditions: Breast Cancer/Breast cell line.
A further experiment relates to T47D. The experiment is described as above. Conditions: Homo sapiens, Breast Cancer/Breast cell line. The experiment is classed as cell-based.
A further experiment concerns HL-60. The experiment is described as above. The class given is cell-based. Particulars: Homo sapiens, Blood cancer cell line, read-out: Inhibition of Proliferation HL60.
The subject of another experiment is SAOS. The description is as above. The experiment is classed as cell-based. Conditions: Osteosarcoma cell line.
The next experiment has as its system RS4-11. The experiment is described as above. The experiment is classed as cell-based. Conditions: Homo sapiens, Blood cancer cell line.
For a further experiment, the system named is MCF-10A. Described as above. The experiment is classed as cell-based. Particulars: Homo sapiens, Breast Cancer/Breast cell line, read-out: Inhibition of Proliferation MCF10A.
A further experiment deals with RD-ES. Described as above. The experiment is classed as cell-based. Particulars: Ewing's Sarcoma cell line. Here is the method: (§1) • Hs863T—DMEM (4 mM L-Glut, 4.5 g/L Glucose, 1 mM pyruvate, 1.5 g/l bicarb)+10% FBS • Hs822T—DMEM (4 mM L-Glut, 4.5 g/L Glucose, 1 mM pyruvate, 1.5 g/l bicarb)+10% FBS • A673—DMEM (4 mM L-Glut, 4.5 g/L Glucose, 1 mM pyruvate, 1.5 g/l bicarb)+10% FBS • SKES-1—McCoy's 5a Medium Modified (modified—1.5 mM L-glut, 2.2 g/L bicarb)+15% FBS • RD-ES—RPMI 1640+15% FBS.

In another experiment the test system is A673. The experiment is described as above. The experiment is classed as cell-based. Conditions: Homo sapiens, Ewing's Sarcoma cell line. The protocol: as §1
A further experiment concerns SKES-1. The experiment is described as above. The experiment is classed as cell-based. Conditions: Homo sapiens, SK-ES1, Ewing's Sarcoma cell line, read-out: Inhibition of Proliferation SK-ES. The protocol: as §1
The test system of another experiment is Hs863T. The description is as above. Conditions: Ewing's Sarcoma cell line. The experiment is classed as cell-based. The protocol: as §1
A further experiment deals with Hs822T. The experiment is described as above. The class given is cell-based. Particulars: Ewing's Sarcoma cell line. The protocol:
as §1

The subject of the next experiment is MNNG-Hos Cl#5. The experiment is described as above. The experiment is classed as cell-based. Particulars: Osteosarcoma cell line.
In a further experiment the test system is THP-1. Described as above. The experiment is classed as cell-based. Particulars: Homo sapiens, Blood cancer cell line.
The subject of another experiment is MV4-11. Described as above. The class given is cell-based. Conditions: Homo sapiens, Blood cancer cell line.
Another experiment relates to MDA-MB231. Described as above. The class given is cell-based. Conditions: Homo sapiens, MDA-MB-231, Breast Cancer/Breast cell line.
The next experiment relates to SKBR-3. The description is as above. The experiment is classed as cell-based. Particulars: Homo sapiens, SK-BR-3, Breast Cancer/Breast cell line, read-out: Inhibition of Proliferation SKBR3.
A further experiment relates to MCF-7. The description is as above. The class given is cell-based. Particulars: Homo sapiens, MCF7, Breast Cancer/Breast cell line.
In a further experiment the test system is Jurkat. The description is as above. The class given is cell-based. Particulars: Homo sapiens, Jurkat, 72 h, Blood cancer cell line; 72 hour; read-out: Inhibition of Proliferation of Jurkat Cells. The protocol:
The following cancer cell lines were tested with the media conditions indicated: […]

Another experiment has as its target T1, CDK7 (Homo sapiens, UniProt P50613).
T1 construct: purchased Life Technologies (Adapta kinase assay service)
As to the kind of experiment: Adapta kinase assay (Life Technologies) against CDK7, co-factors cyclin H and MNAT1. The class given is biochemical. Conditions: read-out: CDK7 Inhibition.

T1 sequence (P50613 whole entry): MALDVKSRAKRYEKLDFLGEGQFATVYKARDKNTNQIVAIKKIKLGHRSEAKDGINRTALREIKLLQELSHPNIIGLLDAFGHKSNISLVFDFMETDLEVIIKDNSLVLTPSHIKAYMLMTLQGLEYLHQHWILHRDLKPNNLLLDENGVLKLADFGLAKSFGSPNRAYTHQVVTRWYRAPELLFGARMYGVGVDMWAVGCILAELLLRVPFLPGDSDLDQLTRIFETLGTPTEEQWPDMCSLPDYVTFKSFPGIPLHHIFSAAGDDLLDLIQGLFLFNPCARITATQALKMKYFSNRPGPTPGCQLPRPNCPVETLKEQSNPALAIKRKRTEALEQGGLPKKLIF
T1 sequence (P51946 whole entry partner): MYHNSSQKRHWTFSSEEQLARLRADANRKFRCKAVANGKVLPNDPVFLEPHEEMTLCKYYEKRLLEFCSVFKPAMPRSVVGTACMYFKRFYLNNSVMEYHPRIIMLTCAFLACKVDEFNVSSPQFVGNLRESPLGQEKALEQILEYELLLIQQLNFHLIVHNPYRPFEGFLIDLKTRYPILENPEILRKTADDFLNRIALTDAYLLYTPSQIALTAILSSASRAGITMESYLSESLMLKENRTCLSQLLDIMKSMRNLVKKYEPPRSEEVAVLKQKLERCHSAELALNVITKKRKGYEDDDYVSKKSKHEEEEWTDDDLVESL
T1 sequence (P51948 whole entry partner): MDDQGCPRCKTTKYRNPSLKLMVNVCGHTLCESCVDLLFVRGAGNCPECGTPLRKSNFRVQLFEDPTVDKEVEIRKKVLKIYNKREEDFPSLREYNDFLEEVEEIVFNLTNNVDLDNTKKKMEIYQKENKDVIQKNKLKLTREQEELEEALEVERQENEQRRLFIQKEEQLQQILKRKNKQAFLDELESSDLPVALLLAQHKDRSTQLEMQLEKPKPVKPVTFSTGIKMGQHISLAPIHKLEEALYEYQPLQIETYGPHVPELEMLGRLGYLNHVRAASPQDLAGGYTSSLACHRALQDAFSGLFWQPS

In the case of `CC(C)[C@]12O[C@H]1[C@@H]1O[C@]13[C@]1(O[C@H]1C[C@H]1C4=C(CC[C@@]13C)C(=O)OC4)[C@@H]2O` [Triptolide, triptolide, reference compound], the IC50 with 143B was less than 500 nM; with hTERT-HME1, less than 500 nM; in the experiment with T47D, more than 5000 nM; in the experiment with HL-60, less than 500 nM; with SAOS, less than 500 nM; in the experiment on RS4-11 it was less than 500 nM. Moreover, the IC50 in the experiment with MCF-10A was less than 500 nM; in the experiment on RD-ES, less than 500 nM; in the experiment with A673, less than 500 nM; in the experiment with SKES-1 it was less than 500 nM; with Hs863T, more than 5000 nM; with Hs822T, 500 to 5000 nM. Besides, the IC50 in the experiment on MNNG-Hos Cl#5, with THP-1, with MV4-11, with MDA-MB231, in the experiment on SKBR-3 and in the experiment with MCF-7 was less than 500 nM each time.

Turning to `CN(C)C/C=C/C(=O)Nc1ccc(C(=O)N2CCC(Nc3ncc(Cl)c(-c4c[nH]c5ccccc45)n3)CC2)cc1` [Compound 100, (E)-N-(4-(4-(5-chloro-4-(1H-indol-3-yl)pyrimidin-2-ylamino)piperidine-1-carbonyl)phenyl)-4-(dimethylamino)but-2-enamide], the IC50 with 143B was more than 5000 nM; in the experiment on Jurkat, less than 500 nM; in the experiment with hTERT-HME1, less than 500 nM; in the experiment on T47D, more than 5000 nM; in the experiment with HL-60, less than 500 nM; in the experiment on SAOS, less than 500 nM. The IC50 in the experiment with RS4-11 is less than 500 nM; in the experiment on MCF-10A it was less than 500 nM; in the experiment with RD-ES, less than 500 nM; in the experiment on A673, less than 500 nM; with SKES-1 it was less than 500 nM; in the experiment with Hs863T, more than 5000 nM. Further, the IC50 with Hs822T was 500 to 5000 nM; in the experiment on MNNG-Hos Cl#5, 500 to 5000 nM; with THP-1 it was less than 500 nM; in the experiment on MV4-11, less than 500 nM; in the experiment with MDA-MB231, less than 500 nM; with SKBR-3, more than 5000 nM. The IC50 on CDK7 is less than 100 nM; in the experiment on MCF-7, less than 500 nM.

As to `CN1CC[C@H](c2c(O)cc(O)c3c(=O)cc(-c4ccccc4Cl)oc23)[C@H](O)C1` [Flavopiridol, flavopiridol, reference compound], the IC50 with 143B was 500 to 5000 nM; with hTERT-HME1, less than 500 nM; in the experiment with T47D, more than 5000 nM; in the experiment with HL-60, less than 500 nM; in the experiment with SAOS, less than 500 nM; with RS4-11 it was less than 500 nM. For the same compound, the IC50 with MCF-10A is less than 500 nM; in the experiment on RD-ES, less than 500 nM; in the experiment on A673, less than 500 nM; in the experiment with SKES-1, less than 500 nM; with Hs863T, more than 5000 nM; in the experiment with Hs822T, more than 5000 nM. Further, the IC50 with MNNG-Hos Cl#5 was 500 to 5000 nM; in the experiment on THP-1, less than 500 nM; in the experiment with MV4-11 it was less than 500 nM; in the experiment with MDA-MB231 it was less than 500 nM; in the experiment on SKBR-3 it was less than 500 nM; in the experiment on MCF-7, 500 to 5000 nM.

Turning to `CN(C)C/C=C/C(=O)Nc1ccc(C(=O)N2CC[C@H](Nc3ncc(Cl)c(-c4c[nH]c5ccccc45)n3)C2)cc1` [Compound 101, (E)-N-(4-((S)-3-(5-chloro-4-(1H-indol-3-yl)pyrimidin-2-ylamino)pyrrolidine-1-carbonyl)phenyl)-4-(dimethylamino)but-2-enamide], the IC50 in the experiment with 143B was more than 5000 nM; in the experiment with Jurkat, 500 to 5000 nM; in the experiment with hTERT-HME1, 500 to 5000 nM; in the experiment on T47D it was more than 5000 nM; in the experiment on HL-60, more than 5000 nM; in the experiment with SAOS it was more than 5000 nM. Moreover, the IC50 is 500 to 5000 nM in the experiment with RS4-11; 500 to 5000 nM with MCF-10A; more than 5000 nM in the experiment on RD-ES; 500 to 5000 nM in the experiment with A673; 500 to 5000 nM in the experiment with SKES-1; more than 5000 nM with Hs863T. Further, the IC50 in the experiment on Hs822T was more than 5000 nM; with MNNG-Hos Cl#5, more than 5000 nM; with THP-1 it was more than 5000 nM; with MV4-11, less than 500 nM; in the experiment with MDA-MB231 it was more than 5000 nM; with SKBR-3, more than 5000 nM. The IC50 on CDK7 was 100 to 1000 nM; in the experiment with MCF-7 it was more than 5000 nM.

Regarding `CN(C)C/C=C/C(=O)Nc1ccc(C(=O)N2CC[C@@H](Nc3ncc(C#N)c(-c4c[nH]c5ccccc45)n3)C2)cc1` [Compound 103, (E)-N-(4-((R)-3-(5-cyano-4-(1H-indol-3-yl)pyrimidin-2-ylamino)pyrrolidine-1-carbonyl)phenyl)-4-(dimethylamino)but-2-enamide], the IC50 in the experiment with 143B is more than 5000 nM; in the experiment on Jurkat, less than 500 nM; in the experiment with hTERT-HME1, less than 500 nM; in the experiment with T47D, more than 5000 nM; with HL-60, less than 500 nM; in the experiment on SAOS, less than 500 nM. For the same compound, the IC50 in the experiment with RS4-11 was less than 500 nM; with MCF-10A, less than 500 nM; with RD-ES, less than 500 nM; in the experiment with A673, less than 500 nM; in the experiment with SKES-1 it was less than 500 nM; with Hs863T, more than 5000 nM. In addition, the IC50 with Hs822T is more than 5000 nM; in the experiment with MNNG-Hos Cl#5 it was 500 to 5000 nM; in the experiment with THP-1, less than 500 nM; with MV4-11, less than 500 nM; with MDA-MB231, less than 500 nM; with SKBR-3, more than 5000 nM. For the same compound, the IC50 at CDK7 was less than 100 nM; in the experiment with MCF-7, more than 5000 nM.

On to `CN(C)C/C=C/C(=O)Nc1ccc(C(=O)N2CC[C@@H](Nc3ncc(Cl)c(-c4c[nH]c5ccccc45)n3)C2)cc1` [Compound 104, (E)-N-(4-((R)-3-(5-chloro-4-(1H-indol-3-yl)pyrimidin-2-ylamino)pyrrolidine-1-carbonyl)phenyl)-4-(dimethylamino)but-2-enamide.TFA], for which the IC50 was more than 5000 nM in the experiment with 143B; less than 500 nM in the experiment with Jurkat; less than 500 nM in the experiment with hTERT-HME1; more than 5000 nM in the experiment with T47D; less than 500 nM with HL-60; less than 500 nM with SAOS. For the same compound, the IC50 in the experiment on RS4-11 was less than 500 nM; with MCF-10A, less than 500 nM; with RD-ES, less than 500 nM; with A673, less than 500 nM; in the experiment on SKES-1, less than 500 nM; in the experiment with Hs863T, more than 5000 nM. In addition, the IC50 in the experiment with Hs822T was 500 to 5000 nM; with MNNG-Hos Cl#5, more than 5000 nM; with THP-1, less than 500 nM; in the experiment on MV4-11 it was less than 500 nM; in the experiment with MDA-MB231 it was less than 500 nM; with SKBR-3, more than 5000 nM. Moreover, the IC50 is less than 100 nM at CDK7 and 500 to 5000 nM with MCF-7.

For `CN(C)C/C=C/C(=O)Nc1ccc(C(=O)N2CCC(Nc3ncc(C#N)c(-c4c[nH]c5ccccc45)n3)CC2)cc1` [Compound 102, (E)-N-(4-(4-(5-cyano-4-(1H-indol-3-yl)pyrimidin-2-ylamino)piperidine-1-carbonyl)phenyl)-4-(dimethylamino)but-2-enamide], the IC50 in the experiment with 143B is more than 5000 nM; in the experiment on Jurkat, less than 500 nM; with hTERT-HME1 it was less than 500 nM; with T47D, more than 5000 nM; in the experiment on HL-60, less than 500 nM; in the experiment on SAOS it was less than 500 nM. Also, the IC50 was less than 500 nM in the experiment on RS4-11; less than 500 nM with MCF-10A; less than 500 nM with RD-ES; less than 500 nM in the experiment with A673; less than 500 nM in the experiment with SKES-1; more than 5000 nM in the experiment on Hs863T. In addition, the IC50 is 500 to 5000 nM in the experiment on Hs822T; more than 5000 nM in the experiment with MNNG-Hos Cl#5; less than 500 nM with THP-1; less than 500 nM in the experiment on MV4-11; less than 500 nM with MDA-MB231; more than 5000 nM in the experiment on SKBR-3. Also, the values for the IC50 at CDK7 and in the experiment on MCF-7 were less than 100 nM and less than 500 nM, respectively.
